Measurements from ChEMBL document CHEMBL1135004, “Natural and synthetic geiparvarins are strong and selective MAO-B inhibitors. Synthesis and SAR studies” (Bioorg Med Chem Lett, 2002).

Assays:
Monoamine oxidase A [1] = target: T1, Monoamine oxidase A (Homo sapiens, UniProt P21397); test: Inhibitory potency against Monoamine oxidase A at 10 uM
T1 sequence (P21397 whole entry): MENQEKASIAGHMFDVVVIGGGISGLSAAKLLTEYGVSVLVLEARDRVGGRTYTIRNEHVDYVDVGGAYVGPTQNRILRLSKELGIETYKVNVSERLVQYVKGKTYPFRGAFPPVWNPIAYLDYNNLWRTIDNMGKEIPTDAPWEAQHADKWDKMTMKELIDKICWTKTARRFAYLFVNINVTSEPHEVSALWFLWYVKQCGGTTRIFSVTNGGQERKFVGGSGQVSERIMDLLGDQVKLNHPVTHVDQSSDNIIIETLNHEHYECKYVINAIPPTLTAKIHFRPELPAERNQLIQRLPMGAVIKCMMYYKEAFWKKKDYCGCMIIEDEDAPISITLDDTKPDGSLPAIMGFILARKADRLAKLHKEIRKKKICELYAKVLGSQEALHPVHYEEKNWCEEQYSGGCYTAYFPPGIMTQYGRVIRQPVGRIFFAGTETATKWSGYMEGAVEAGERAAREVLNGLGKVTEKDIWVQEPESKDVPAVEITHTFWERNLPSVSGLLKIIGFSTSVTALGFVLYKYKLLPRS

[2] = target: T2, Amine oxidase [flavin-containing] B (Homo sapiens, UniProt P27338); test: Inhibitory potency against Monoamine oxidase B
T2 sequence (P27338 whole entry): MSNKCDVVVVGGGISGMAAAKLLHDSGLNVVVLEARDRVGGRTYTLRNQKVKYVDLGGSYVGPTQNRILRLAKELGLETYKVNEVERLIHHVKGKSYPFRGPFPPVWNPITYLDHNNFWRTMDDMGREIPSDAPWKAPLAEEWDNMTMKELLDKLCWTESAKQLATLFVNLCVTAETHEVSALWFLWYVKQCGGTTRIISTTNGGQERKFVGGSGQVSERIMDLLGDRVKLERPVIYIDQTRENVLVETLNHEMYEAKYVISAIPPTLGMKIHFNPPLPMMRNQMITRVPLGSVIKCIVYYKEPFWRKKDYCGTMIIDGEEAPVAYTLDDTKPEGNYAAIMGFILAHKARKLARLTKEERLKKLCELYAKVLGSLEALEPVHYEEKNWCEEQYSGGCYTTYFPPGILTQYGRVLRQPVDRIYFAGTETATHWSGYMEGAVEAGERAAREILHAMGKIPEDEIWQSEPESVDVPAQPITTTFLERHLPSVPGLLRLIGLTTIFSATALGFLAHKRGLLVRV

[3] = target: T3, Amine oxidase [flavin-containing] A (Homo sapiens, UniProt P21397); test: Inhibitory potency against Monoamine oxidase A
T3 sequence (P21397 whole entry): T1 sequence (P21397 whole entry)

Monoamine oxidase A [4] = target: T1, Monoamine oxidase A; test: Inhibitory potency against Monoamine oxidase A at 3 uM

Row | Structure (SMILES) | inhibition at 10 µM (Monoamine oxidase A [1]) [%] | IC50 [2] [nM] | IC50 [3] [nM] | inhibition at 3 µM (Monoamine oxidase A [4]) [%]
1 | CC(=O)/C=C/C=C/COc1ccc2ccc(=O)oc2c1 | 26 | 1700 |  | 
2 | Cc1c(C)c2ccc(OC/C=C/C3=CC(=O)C(C)(C)O3)cc2oc1=O |  | 631 | 11200 | 
3 | Cc1cc(=O)oc2cc(OC/C=C/C3=CC(=O)C(C)(C)O3)ccc12 | 27 | 170 |  | 
4 | C/C(=C\COc1ccc2ccc(=O)oc2c1)C1=CC(=O)C(C)(C)O1 [GEIPARVARIN] |  | 145 | 26900 | 

Further compounds by falling IC50 [2], results first:

Row | inhibition at 10 µM (Monoamine oxidase A [1]) [%] | IC50 [2] [nM] | IC50 [3] [nM] | inhibition at 3 µM (Monoamine oxidase A [4]) [%] | Structure (SMILES)
5 |  | 1510 |  | 0 | CC1(c2ccccc2)OC(/C=C/COc2ccc3ccc(=O)oc3c2)=CC1=O (stereo unspecified)
6 |  | 589 | 15100 |  | Cc1cc2ccc(OC/C=C/C3=CC(=O)C(C)(C)O3)cc2oc1=O
7 | 37 | 129 |  |  | C/C(=C\COc1ccc2c(C)c(C)c(=O)oc2c1)C1=CC(=O)C(C)(C)O1
8 |  | 28.2 | 24000 |  | CC1(C)OC(/C=C/COc2ccc3ccc(=O)oc3c2)=CC1=O
